Experimental data from patent US10314305B2, “Liquid agrochemical compositions comprising a polymeric thickener and an alcohol-containing solvent system, and liquid herbicidal compositions having an alcohol-containing solvent system” (Syngenta Participations AG, priority 2012, dated 2019).

Experiment: Solubility of active ingredients in solvents

For CCc1cc(C)cc(CC)c1-c1c(OC(=O)C(C)(C)C)n2n(c1=O)CCOCC2 [pinoxaden, 8-(2,6-diethyl-4-methylphenyl)-1,2,4,5-tetrahydro-7-oxo-7H-pyrazolo[1,2-d][1,4,5]oxadiazepin-9-yl 2,2-dimethylpropionate], the “Solvent quality of 1,2-propylene carbonate for the active ingredient” value (1,2-propylene carbonate) was “only a moderately good solvent”, the “Solvent quality of tetrahydrofurfuryl alcohol (THFA) for the active ingredient” value (THFA) was “excellent solvent” and the “Solvent quality of benzyl alcohol for the active ingredient” value (benzyl alcohol) was “excellent solvent”.
